Laboratory results reported in the NIST ThermoML archive (doi:10.1021/je060271a).
± gives the expanded uncertainty stated by the source.

Details: 303.15 K, Liquid, Vibrating tube method

CCCCCCCC(=O)OCC(COC(=O)CCCCCCC)(COC(=O)CCCCCCC)COC(=O)CCCCCCC [pentaerythritol tetraoctanoate]
mass density (28411 kPa): 972 ± 1.2 kg/m3 | mass density (28450 kPa): 971.9 ± 1.2 kg/m3 | mass density (28485 kPa): 972 ± 1.2 kg/m3 | mass density (28563 kPa): 972.1 ± 1.2 kg/m3 | mass density (28635 kPa): 972 ± 1.2 kg/m3 | mass density (28718 kPa): 972.1 ± 1.2 kg/m3 | mass density (28794 kPa): 972.2 ± 1.2 kg/m3 | mass density (28833 kPa): 972.2 ± 1.2 kg/m3 | mass density (28858 kPa): 972 ± 1.2 kg/m3 | mass density (28881 kPa): 972.2 ± 1.2 kg/m3 | mass density (28903 kPa): 972.2 ± 1.2 kg/m3 | mass density (28932 kPa): 972.2 ± 1.2 kg/m3 | mass density (28954 kPa): 972.3 ± 1.2 kg/m3 | mass density (28977 kPa): 972.2 ± 1.2 kg/m3 | mass density (29007 kPa): 972.1 ± 1.2 kg/m3 | mass density (29030 kPa): 972.2 ± 1.2 kg/m3 | mass density (29057 kPa): 972.3 ± 1.2 kg/m3 | mass density (29081 kPa): 972.3 ± 1.2 kg/m3 | mass density (29107 kPa): 972.3 ± 1.2 kg/m3 | mass density (29129 kPa): 972.3 ± 1.2 kg/m3 | mass density (29159 kPa): 972.2 ± 1.2 kg/m3 | mass density (29182 kPa): 972.4 ± 1.2 kg/m3 | mass density (29208 kPa): 972.2 ± 1.2 kg/m3 | mass density (29237 kPa): 972.4 ± 1.2 kg/m3 | mass density (29263 kPa): 971.8 ± 1.2 kg/m3 | mass density (29291 kPa): 972.4 ± 1.2 kg/m3 | mass density (29316 kPa): 972.4 ± 1.2 kg/m3 | mass density (29341 kPa): 972.6 ± 1.2 kg/m3 | mass density (29366 kPa): 972.4 ± 1.2 kg/m3 | mass density (29397 kPa): 972.5 ± 1.2 kg/m3 | mass density (29422 kPa): 972.5 ± 1.2 kg/m3 | mass density (29447 kPa): 972.5 ± 1.2 kg/m3 | mass density (29476 kPa): 972.5 ± 1.2 kg/m3 | mass density (29501 kPa): 972.6 ± 1.2 kg/m3 | mass density (29527 kPa): 972.6 ± 1.2 kg/m3 | mass density (29551 kPa): 972.5 ± 1.2 kg/m3 | mass density (29579 kPa): 972.5 ± 1.2 kg/m3 | mass density (29610 kPa): 972.6 ± 1.2 kg/m3 | mass density (29627 kPa): 972.6 ± 1.2 kg/m3 | mass density (29648 kPa): 972.6 ± 1.2 kg/m3 | mass density (29671 kPa): 972.6 ± 1.2 kg/m3 | mass density (29696 kPa): 972.7 ± 1.2 kg/m3 | mass density (29725 kPa): 972.7 ± 1.2 kg/m3 | mass density (29750 kPa): 972.6 ± 1.2 kg/m3 | mass density (29775 kPa): 972.6 ± 1.2 kg/m3 | mass density (29807 kPa): 972.8 ± 1.2 kg/m3 | mass density (29827 kPa): 972.7 ± 1.2 kg/m3 | mass density (29857 kPa): 972.7 ± 1.2 kg/m3 | mass density (29882 kPa): 972.8 ± 1.2 kg/m3 | mass density (29912 kPa): 972.7 ± 1.2 kg/m3 | mass density (29937 kPa): 972.6 ± 1.2 kg/m3 | mass density (29963 kPa): 972.7 ± 1.2 kg/m3 | mass density (29993 kPa): 972.9 ± 1.2 kg/m3 | mass density (30018 kPa): 972.7 ± 1.2 kg/m3 | mass density (30044 kPa): 972.8 ± 1.2 kg/m3 | mass density (30069 kPa): 972.8 ± 1.2 kg/m3 | mass density (30100 kPa): 972.9 ± 1.2 kg/m3 | mass density (30125 kPa): 972.8 ± 1.2 kg/m3 | mass density (30151 kPa): 972.8 ± 1.2 kg/m3 | mass density (30183 kPa): 972.9 ± 1.2 kg/m3 | mass density (30209 kPa): 973 ± 1.2 kg/m3 | mass density (30234 kPa): 973 ± 1.2 kg/m3 | mass density (30260 kPa): 973 ± 1.2 kg/m3 | mass density (30291 kPa): 972.9 ± 1.2 kg/m3 | mass density (30317 kPa): 973 ± 1.2 kg/m3 | mass density (30343 kPa): 972.9 ± 1.2 kg/m3 | mass density (30374 kPa): 973 ± 1.2 kg/m3 | mass density (30400 kPa): 972.9 ± 1.2 kg/m3 | mass density (30431 kPa): 973.1 ± 1.2 kg/m3 | mass density (30457 kPa): 973 ± 1.2 kg/m3 | mass density (30483 kPa): 973.1 ± 1.2 kg/m3 | mass density (30510 kPa): 973.1 ± 1.2 kg/m3 | mass density (30541 kPa): 973 ± 1.2 kg/m3 | mass density (30568 kPa): 972.9 ± 1.2 kg/m3 | mass density (30595 kPa): 973.1 ± 1.2 kg/m3 | mass density (30626 kPa): 973.2 ± 1.2 kg/m3 | mass density (30652 kPa): 973.1 ± 1.2 kg/m3 | mass density (30685 kPa): 973.2 ± 1.2 kg/m3 | mass density (30711 kPa): 973.2 ± 1.2 kg/m3 | mass density (30738 kPa): 973.3 ± 1.2 kg/m3 | mass density (30765 kPa): 973.1 ± 1.2 kg/m3 | mass density (30797 kPa): 973.2 ± 1.2 kg/m3 | mass density (30824 kPa): 973.2 ± 1.2 kg/m3 | mass density (30852 kPa): 973.1 ± 1.2 kg/m3 | mass density (30884 kPa): 973.2 ± 1.2 kg/m3 | mass density (30911 kPa): 973.4 ± 1.2 kg/m3 | mass density (30938 kPa): 973.2 ± 1.2 kg/m3 | mass density (30971 kPa): 973.2 ± 1.2 kg/m3 | mass density (30998 kPa): 973.3 ± 1.2 kg/m3 | mass density (31025 kPa): 973.3 ± 1.2 kg/m3 | mass density (31057 kPa): 973.4 ± 1.2 kg/m3 | mass density (31085 kPa): 973.5 ± 1.2 kg/m3 | mass density (31113 kPa): 973.5 ± 1.2 kg/m3 | mass density (31145 kPa): 973.5 ± 1.2 kg/m3 | mass density (31172 kPa): 973.6 ± 1.2 kg/m3 | mass density (31206 kPa): 973.4 ± 1.2 kg/m3 | mass density (31234 kPa): 973.5 ± 1.2 kg/m3 | mass density (31261 kPa): 973.5 ± 1.2 kg/m3 | mass density (31290 kPa): 973.5 ± 1.2 kg/m3 | mass density (31323 kPa): 973.5 ± 1.2 kg/m3 | mass density (31351 kPa): 973.5 ± 1.2 kg/m3 | mass density (31380 kPa): 973.6 ± 1.2 kg/m3 | mass density (31413 kPa): 973.5 ± 1.2 kg/m3 | mass density (31442 kPa): 973.6 ± 1.2 kg/m3 | mass density (31469 kPa): 973.7 ± 1.2 kg/m3 | mass density (31503 kPa): 973.6 ± 1.2 kg/m3 | mass density (31532 kPa): 973.7 ± 1.2 kg/m3 | mass density (31560 kPa): 973.7 ± 1.2 kg/m3 | mass density (31589 kPa): 973.6 ± 1.2 kg/m3 | mass density (31624 kPa): 973.7 ± 1.2 kg/m3 | mass density (31653 kPa): 973.6 ± 1.2 kg/m3 | mass density (31681 kPa): 973.8 ± 1.2 kg/m3 | mass density (31715 kPa): 973.8 ± 1.2 kg/m3 | mass density (31744 kPa): 973.7 ± 1.2 kg/m3 | mass density (31773 kPa): 973.7 ± 1.2 kg/m3 | mass density (31808 kPa): 973.8 ± 1.2 kg/m3 | mass density (31836 kPa): 973.7 ± 1.2 kg/m3 | mass density (31865 kPa): 973.8 ± 1.2 kg/m3 | mass density (31900 kPa): 973.8 ± 1.2 kg/m3 | mass density (31929 kPa): 973.8 ± 1.2 kg/m3 | mass density (31958 kPa): 973.8 ± 1.2 kg/m3 | mass density (31994 kPa): 973.8 ± 1.2 kg/m3 | mass density (32025 kPa): 973.9 ± 1.2 kg/m3 | mass density (32055 kPa): 973.9 ± 1.2 kg/m3 | mass density (32084 kPa): 973.8 ± 1.2 kg/m3 | mass density (32120 kPa): 973.9 ± 1.2 kg/m3 | mass density (32150 kPa): 974 ± 1.2 kg/m3 | mass density (32179 kPa): 973.9 ± 1.2 kg/m3 | mass density (32215 kPa): 973.9 ± 1.2 kg/m3 | mass density (32244 kPa): 974 ± 1.2 kg/m3 | mass density (32274 kPa): 974 ± 1.2 kg/m3 | mass density (32311 kPa): 974 ± 1.2 kg/m3 | mass density (32340 kPa): 974 ± 1.2 kg/m3 | mass density (32370 kPa): 974.1 ± 1.2 kg/m3 | mass density (32407 kPa): 974 ± 1.2 kg/m3 | mass density (32432 kPa): 974.1 ± 1.2 kg/m3 | mass density (32469 kPa): 974.1 ± 1.2 kg/m3 | mass density (32499 kPa): 974.2 ± 1.2 kg/m3 | mass density (32535 kPa): 974.2 ± 1.2 kg/m3 | mass density (32566 kPa): 974.2 ± 1.2 kg/m3 | mass density (32596 kPa): 974.2 ± 1.2 kg/m3 | mass density (32626 kPa): 974.2 ± 1.2 kg/m3 | mass density (32663 kPa): 974.2 ± 1.2 kg/m3 | mass density (32693 kPa): 974.1 ± 1.2 kg/m3 | mass density (32730 kPa): 974.3 ± 1.2 kg/m3 | mass density (32761 kPa): 974.3 ± 1.2 kg/m3 | mass density (32792 kPa): 974.3 ± 1.2 kg/m3 | mass density (32829 kPa): 974.3 ± 1.2 kg/m3
